Data published in publication PMC4108065, “Inflammation and pancreatic cancer: molecular and functional interactions between S100A8, S100A9, NT-S100A8 and TGFβ1” (Cell Communication and Signaling : CCS, 2014).

Experiments:
[1] = test system: BxPC3-SMAD4+; assay: XTT cell viability assay, BxPC3-SMAD4+; format: cell-based, human; details: BxPC3-SMAD4+ vs BxPC3, XTT, 48 hours; TGFβ1 0.02 ng/ml, NT-S100A8 50 nM
Procedure: Supplementary file 1478-811X-12-20-S7.tiff: Additional file 7: Figure S6 XTT cell viability assay results. BxPC3 (empty columns) and BxPC3-SMAD4+ (filled columns) were seeded in a 96 well culture plate (2000 cells/well) and cultured for 48 hours, A: in absence (control) or in presence of TGFβ1 (0.02 ng/ml) and NT-S100A8 (50 nM), alone or combined; B: in absence (control) or in presence of TGFβ1 (0.02 ng/ml) and S100A8 (10 nM) and S100A9 (10 nM), alone or combined. In each experimental set, the median value of Abs450nm of untreated cells was calculated and used as reference. All the other values were expressed as percentage to the reference. Columns and bars show mean and standard errors, respectivelty. Student’s t test: * = p<0.05. Click here for file
BxPC3, Capan1, MiaPaCa2, Panc1 and BxPC3-SMAD4+ cells were seeded (2000 cells per well) in 96-well cell culture plates and cultured in complete media for 24 hours. […] Cell growth was assessed after 48 hours using the XTT cell viability test (Roche, Milano, Italy). […] The results were expressed as percentage with respect to the median Abs450nm of control cells run in the same experimental set.

[2] = test system: BxPC3 EMT gene mRNA; assay: Real time PCR for EMT markers, BxPC3; format: cell-based, human; details: BxPC3, 72 hours
Procedure: BxPC3 and MiaPaCa2 cells (300 × 10^3) were seeded in six well dishes for 24 hours in their complete media. Cells remained non-stimulated (negative control) or were stimulated with 10 nM S100A8, 10 nM S100A9 and 50 nM NT-S100A8, alone or combined with 0.02 ng/ml TGFβ1, for 72 hours. Following stimulation, the cells were collected with 0.25% trypsin (1 mM EDTA) and centrifuged for 10 min at 4,000 rpm. Total RNA was extracted from cells using the High Pure RNA isolation kit (Roche, Monza, Italy), and reverse transcription was performed using 200 ng of total RNA, M-MLV Transcriptase and 250 μM random primers (Invitrogen S.R.L.). Quantitative Real-Time PCR analysis for CDH1 (E-cadherin), CDH2 (N-cadherin), SNAI1 (Snail), SNAI2 (Slug), TWIST1 (Twist), ZEB1, ZEB2, and B2M (β2-micro-globulin) were performed with the LightCycler 480 Real-Time System (Roche Diagnostics, Mannheim, Germany). The primer sequences (shown in Additional file 10: Table S2) and the respective probes were designed using the Universal ProbeLibrary (Roche) and ProbeFinder software (http://www.roche-applied-science.com/). Experimental procedures followed the standard protocol using the LightCycler 480 Probes Master (Roche). β2-microglobulin (B2M) was included as a housekeeping gene control. […]

Substance | cell proliferation response associated with Smad4 expression [1] | Twist expression ([2]; 10 nM, levels comparable with those of TGFβ1, Kruskal-Wallis p = 0.018) | Twist median fold increase ([2]; 0.02 ng/ml TGFβ1, RT-PCR, with respect to control cells) [fold]
NT-S100A8: 14 N-terminal aminoacid peptide of S100A8, isolated from PDAC tissues (MLTELEKALNSIID; UniProt P05109 1-14, looked up, fragment) | positive cell proliferation response | – | –
S100A8: inflammatory calcium binding protein S100A8 (ProSpec-Tany TechnoGene) | – | significantly increased | –
TGFβ1: transforming growth factor beta 1 (ProSpec-Tany TechnoGene) | positive cell proliferation response | – | 6.32
